In US11266643B2, “Triaryl compounds for treatment of PD-L1 diseases” (CHEMOCENTRYX, INC., priority 2019, dated 2022):

Biological target: human PD-L1 (Homo sapiens (Human), UniProt Q9NZQ7)
Test: Enzyme-Linked Immunosorbent Assay (ELISA), PD-1/PD-L1 binding
Conditions: human PD-1/PD-L1 ELISA, plates coated with human PD-L1
Protocol: 96 Well plates were coated with […] of human PD-L1 (obtained from R&D) in PBS overnight at 4° C. The wells were then blocked with 2% BSA in PBS (W/V) with 0.05% TWEEN-20 for 1 hour at 37° C. The plates were washed 3 times with PBS/0.05% TWEEN-20 and the compounds were serial diluted (1:5) in dilution medium and added to the ELISA plates. Human PD-1 […] 0.31 μg/mL (ACRO Biosystems) were added and incubated for 1 hour at 37° C. then washed 3 times with PBS/0.05% TWEEN-20. A second block was performed with 2% BSA in PBS (W/V)/0.05% TWEEN-20 for 10 min at 37° C. and the plates were washed 3 times with PBS/0.05% TWEEN-20. Streptavidin-HRP was added for 1 hour at 37° C. then the plates were washed 3 times with PBS/0.05% TWEEN-20. TMB substrate was added and reacted for 20 min at 37° C. A stop solution (2 N aqueous H2SO4) was added. The absorbance was read at 450 nm using a micro-plate spectrophotometer.
Using the methods described in the Examples above, the compounds in Table 2 were prepared & tested for biological activity using the ELISA method described above.

Chain of human PD-L1 (Q9NZQ7 19-239): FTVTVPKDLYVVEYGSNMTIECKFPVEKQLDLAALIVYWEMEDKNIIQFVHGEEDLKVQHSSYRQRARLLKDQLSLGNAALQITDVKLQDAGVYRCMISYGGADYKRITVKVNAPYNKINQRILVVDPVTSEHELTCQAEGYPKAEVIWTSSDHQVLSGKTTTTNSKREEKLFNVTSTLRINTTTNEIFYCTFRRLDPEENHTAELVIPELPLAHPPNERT

Row | Structure (SMILES) | IC50 [nM]
1 | COc1cc(-c2cccc(-c3cccc(Nc4cncc5nccnc45)c3C)c2C)cc(F)c1CNC[C@@H]1CCC(=O)N1 [Example 1.048] | < 10
2 | COc1cc(-c2cccc(-c3cccc(NC(=O)c4c[nH]c(=O)n(C)c4=O)c3C)c2C)cc(F)c1CN[C@@H]1CCOC1 [Example 1.049] | < 10
3 | COc1cc(-c2cccc(-c3cccc(NC(=O)c4c[nH]c(=O)n(C)c4=O)c3C)c2C)cc(F)c1CN[C@H]1CCOC1 [Example 1.050] | < 10
4 | COc1cc(-c2cccc(-c3cccc(NC(=O)c4cncn(C)c4=O)c3C)c2C)cc(F)c1CNCC1CCNC(=O)C1 (centres unmarked) [Example 1.051] | < 10
5 | COc1cc(-c2cccc(-c3cccc(NC(=O)c4cn(C)c(=O)n(C)c4=O)c3C)c2C)cc(F)c1CNC1CCOCC1 [Example 1.052] | < 10
6 | COc1cc(-c2cccc(-c3cccc(NC(=O)c4c[nH]c(=O)n(C)c4=O)c3C)c2C)cc(F)c1CNC1CCOCC1 [Example 1.053] | < 10
7 | COc1cc(-c2cccc(-c3cccc(NC(=O)c4nn(C)c(=O)n(C)c4=O)c3C)c2C)cc(F)c1CNCc1c[nH]c(=O)[nH]c1=O [Example 1.054] | < 10
8 | COc1cc(-c2cccc(-c3cccc(NC(=O)c4nn(C)c(=O)n(C)c4=O)c3C)c2C)cc(F)c1CNC1CCNC(=O)C1 (centres unmarked) [Example 1.055] | < 10
9 | COc1cc(-c2cccc(-c3cccc(NC(=O)c4nn(C)c(=O)n(C)c4=O)c3C)c2C)cc(F)c1CNC[C@@H]1CCC(=O)N1C [Example 1.056] | < 10
10 | COc1cc(-c2cccc(-c3cccc(NC(=O)c4cn(C)c(=O)n(C)c4=O)c3C)c2C)cc(F)c1CN[C@@H]1COC[C@H]1O [Example 1.057] | < 10
11 | COc1cc(-c2cccc(-c3cccc(NC(=O)c4nn(C)c(=O)n(C)c4=O)c3C)c2C)cc(F)c1CN[C@@H]1CCC(=O)NC1=O [Example 1.058] | 10 to 1000
12 | COc1cc(-c2cccc(-c3cccc(NC(=O)c4nn(C)c(=O)n(C)c4=O)c3C)c2C)cc(F)c1CN[C@@H]1CCCNC1=O [Example 1.059] | 10 to 1000
13 | COc1cc(-c2cccc(-c3cccc(NC(=O)c4nn(C)c(=O)n(C)c4=O)c3C)c2C)cc(F)c1CN[C@H]1CCCNC1=O [Example 1.060] | 10 to 1000
14 | COc1cc(-c2cccc(-c3cccc(NC(=O)c4nn(C)c(=O)n(C)c4=O)c3C)c2C)cc(F)c1CNCCCC(N)=O [Example 1.062] | < 10
15 | COc1cc(-c2cccc(-c3cccc(NC(=O)c4nn(C)c(=O)n(C)c4=O)c3C)c2C)cc(F)c1CNCC(C)(C)C(N)=O [Example 1.063] | < 10
16 | COc1cc(-c2cccc(-c3cccc(NC(=O)c4nn(C)c(=O)n(C)c4=O)c3C)c2C)cc(F)c1CNCC(N)=O [Example 1.064] | < 10
17 | COc1cc(-c2cccc(-c3cccc(NC(=O)c4nn(C)c(=O)n(C)c4=O)c3C)c2C)cc(F)c1CNC(C)C [Example 1.065] | < 10
18 | COc1cc(-c2cccc(-c3cccc(NC(=O)c4cncn(C)c4=O)c3C)c2C)cc(F)c1CN[C@@H]1CCOC[C@@H]1O [Example 1.066] | < 10
19 | COc1cc(-c2cccc(-c3cccc(NC(=O)c4cn(C)c(=O)n(C)c4=O)c3C)c2C)cc(F)c1CNCC1CCNC(=O)C1 (centres unmarked) [Example 1.067] | < 10
20 | COc1cc(-c2cccc(-c3cccc(NC(=O)c4nn(C)c(=O)n(C)c4=O)c3C)c2C)cc(F)c1CNC[C@H]1CCC(=O)N1 [Example 1.068] | < 10
21 | COc1cc(-c2cccc(-c3cccc(NC(=O)c4nn(C)c(=O)n(C)c4=O)c3C)c2C)cc(F)c1CN[C@@H]1CCC(=O)NC1 [Example 1.069] | < 10
22 | COc1cc(-c2cccc(-c3cccc(NC(=O)c4nn(C)c(=O)n(C)c4=O)c3C)c2C)cc(F)c1CN[C@H]1CNC(=O)C1 [Example 1.070] | < 10

Row | Structure (SMILES) | IC50 [nM]
23 | COc1cc(-c2cccc(-c3cccc(NC(=O)c4c[nH]c(=O)n(C)c4=O)c3C)c2C)cc(F)c1CNCC1CCNC(=O)C1 (centres unmarked) [Example 1.071] | < 10
24 | COc1cc(-c2cccc(-c3cccc(NC(=O)c4cn(C)c(=O)n(C)c4=O)c3C)c2C)cc(F)c1CN[C@H]1COC[C@@H]1O [Example 1.072] | < 10
25 | COc1cc(-c2cccc(-c3cccc(NC(=O)c4c[nH]c(=O)n(C)c4=O)c3C)c2C)cc(F)c1CN(C)[C@@H]1CNC(=O)C1 [Example 1.073] | 10 to 1000
26 | COc1cc(-c2cccc(-c3cccc(NC(=O)c4cccn(C)c4=O)c3C)c2C)cc(F)c1CN(C)[C@@H]1CNC(=O)C1 [Example 1.074] | 10 to 1000
27 | COc1cc(-c2cccc(-c3cccc(NC(=O)c4nn(C)c(=O)n(C)c4=O)c3C)c2C)cc(F)c1CN[C@@H]1CCOC[C@@H]1O [Example 1.076] | < 10
28 | COc1cc(-c2cccc(-c3cccc(NC(=O)c4nn(C)c(=O)n(C)c4=O)c3C)c2C)cc(F)c1CN(C)C[C@@H]1CCC(=O)N1 [Example 1.077] | < 10
29 | COc1cc(-c2cccc(-c3cccc(NC(=O)c4c[nH]c(=O)n(C)c4=O)c3C)c2C)cc(F)c1CN[C@@H]1COC[C@H]1O [Example 1.078] | < 10
30 | COc1cc(-c2cccc(-c3cccc(NC(=O)c4c[nH]c(=O)n(C)c4=O)c3C)c2C)cc(F)c1CN[C@H]1COC[C@@H]1O [Example 1.079] | < 10
31 | COc1cc(-c2cccc(-c3cccc(NC(=O)c4cn(C)c(=O)n(C)c4=O)c3C)c2C)cc(F)c1CNCC(C)(C)C(N)=O [Example 1.080] | < 10
32 | COc1cc(-c2cccc(-c3cccc(NC(=O)c4cn(C)c(=O)n(C)c4=O)c3C)c2C)cc(F)c1CNCCCC(N)=O [Example 1.081] | < 10
33 | COc1cc(-c2cccc(-c3cccc(NC(=O)c4cn(C)c(=O)n(C)c4=O)c3C)c2C)cc(F)c1CNCCC1CNC(=O)C1 (centres unmarked) [Example 1.082] | < 10
34 | COc1cc(-c2cccc(-c3cccc(NC(=O)c4c[nH]c(=O)n(C)c4=O)c3C)c2C)cc(F)c1CNCCCC(N)=O [Example 1.083] | < 10
35 | COc1cc(-c2cccc(-c3cccc(NC(=O)c4cncn(C)c4=O)c3C)c2C)cc(F)c1CN(C)[C@@H]1CNC(=O)C1 [Example 1.084] | 10 to 1000
36 | COc1cc(-c2cccc(-c3cccc(NC(=O)c4c[nH]c(=O)n(C)c4=O)c3C)c2C)cc(F)c1CNCC(C)(C)C(N)=O [Example 1.085] | < 10
37 | COc1cc(-c2cccc(-c3cccc(NC(=O)c4c[nH]c(=O)n(C)c4=O)c3C)c2C)cc(F)c1CNCCC1CNC(=O)C1 (centres unmarked) [Example 1.086] | < 10
38 | COc1cc(-c2cccc(-c3cccc(NC(=O)c4cncn(C)c4=O)c3C)c2C)cc(F)c1CNC1CCOCC1 [Example 1.087] | < 10
39 | COc1cc(-c2cccc(-c3cccc(NC(=O)c4nn(C)c(=O)n(C)c4=O)c3C)c2C)cc(F)c1CNCC[C@@H]1CCC(=O)N1 [Example 1.088] | < 10
40 | COc1cc(-c2cccc(-c3cccc(NC(=O)c4nn(C)c(=O)n(C)c4=O)c3C)c2C)cc(F)c1CN[C@H]1CCC(=O)NC1 [Example 1.089] | < 10
41 | COc1cc(-c2cccc(-c3cccc(NC(=O)c4nn(C)c(=O)n(C)c4=O)c3C)c2C)cc(F)c1CNCCC(N)=O [Example 1.090] | < 10
42 | COc1cc(-c2cccc(-c3cccc(NC(=O)c4cncn(C)c4=O)c3C)c2C)cc(F)c1CNCCC(N)=O [Example 1.091] | < 10
43 | COc1cc(-c2cccc(-c3cccc(NC(=O)c4nn(C)c(=O)n(C)c4=O)c3C)c2C)cc(F)c1CNCCN1CCCC1=O [Example 1.092] | < 10
44 | COc1cc(-c2cccc(-c3cccc(NC(=O)c4cn(C)c(=O)n(C)c4=O)c3C)c2C)cc(F)c1CNC1CCNC(=O)C1 (centres unmarked) [Example 1.093] | < 10
